Data reported in PubChem BioAssay (NCI).
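These data come from cells grown in 96-well plates and exposed to compound for 48 hours at five concentrations. GI50 = concentration required for 50% inhibition of growth. TGI denotes the concentration required for complete inhibition of growth.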

How the values were obtained:
Assay in all cases: growth of human tumour cells (NCI), 48 h
MALME-3M melanoma = system: MALME-3M melanoma
RXF 393 renal = system: RXF 393 renal
COLO 205 colon = system: COLO 205 colon
HOP-92 NSCLC = system: HOP-92 NSCLC
K-562 leukemia = system: K-562 leukemia
SF-539 CNS = system: SF-539 CNS
LOX IMVI melanoma = system: LOX IMVI melanoma
MDA-MB-231 breast = system: MDA-MB-231 breast
NCI-H522 lung = system: NCI-H522 lung
UO-31 renal = system: UO-31 renal
TK-10 renal = system: TK-10 renal
UACC-62 melanoma = system: UACC-62 melanoma
U251 CNS = system: U251 CNS
HL-60(TB) leukemia = system: HL-60(TB) leukemia
KM12 colon = system: KM12 colon
NCI-H23 lung = system: NCI-H23 lung
OVCAR-8 ovarian = system: OVCAR-8 ovarian
HCT-116 colon = system: HCT-116 colon
DU-145 prostate = system: DU-145 prostate
T-47D breast = system: T-47D breast
NCI/ADR-RES ovarian = system: NCI/ADR-RES ovarian
NCI-H226 lung = system: NCI-H226 lung
RPMI-8226 leukemia = system: RPMI-8226 leukemia
SN12C renal = system: SN12C renal
SNB-19 CNS = system: SNB-19 CNS
IGROV1 ovarian = system: IGROV1 ovarian
A498 renal = system: A498 renal
EKVX NSCLC = system: EKVX NSCLC

COc1ccc(C(=O)Cn2c(C(=O)c3ccccc3)nc(-c3ccc(OC)cc3)c2-c2ccc(OC)cc2)cc1
GI50 (MALME-3M melanoma): > 100 µM
TGI (MALME-3M melanoma): > 100 µM
GI50 (RXF 393 renal): 19.9 µM
TGI (RXF 393 renal): 49.2 µM
GI50 (COLO 205 colon): > 100 µM
TGI (COLO 205 colon): > 100 µM
GI50 (HOP-92 NSCLC): 24.5 µM
TGI (HOP-92 NSCLC): 60.4 µM
GI50 (K-562 leukemia): > 100 µM
TGI (K-562 leukemia): > 100 µM
GI50 (SF-539 CNS): 31.5 µM
TGI (SF-539 CNS): > 100 µM
GI50 (LOX IMVI melanoma): > 100 µM
TGI (LOX IMVI melanoma): > 100 µM
GI50 (MDA-MB-231 breast): 64.3 µM
TGI (MDA-MB-231 breast): > 100 µM
GI50 (NCI-H522 lung): > 100 µM
TGI (NCI-H522 lung): > 100 µM
GI50 (UO-31 renal): > 100 µM
TGI (UO-31 renal): > 100 µM
GI50 (TK-10 renal): > 100 µM
TGI (TK-10 renal): > 100 µM
GI50 (UACC-62 melanoma): 98.3 µM
TGI (UACC-62 melanoma): > 100 µM
GI50 (U251 CNS): 64.9 µM
TGI (U251 CNS): > 100 µM
GI50 (HL-60(TB) leukemia): > 100 µM
TGI (HL-60(TB) leukemia): > 100 µM
GI50 (KM12 colon): > 100 µM
TGI (KM12 colon): > 100 µM
GI50 (NCI-H23 lung): > 100 µM
TGI (NCI-H23 lung): > 100 µM
GI50 (OVCAR-8 ovarian): > 100 µM
TGI (OVCAR-8 ovarian): > 100 µM
GI50 (HCT-116 colon): > 100 µM
TGI (HCT-116 colon): > 100 µM
GI50 (DU-145 prostate): > 100 µM
TGI (DU-145 prostate): > 100 µM
GI50 (T-47D breast): > 100 µM
TGI (T-47D breast): > 100 µM
GI50 (NCI/ADR-RES ovarian): > 100 µM
TGI (NCI/ADR-RES ovarian): > 100 µM
GI50 (NCI-H226 lung): > 100 µM
TGI (NCI-H226 lung): > 100 µM
GI50 (RPMI-8226 leukemia): > 100 µM
TGI (RPMI-8226 leukemia): > 100 µM
GI50 (SN12C renal): > 100 µM
TGI (SN12C renal): > 100 µM
GI50 (SNB-19 CNS): > 100 µM
TGI (SNB-19 CNS): > 100 µM
GI50 (IGROV1 ovarian): 71.2 µM
TGI (IGROV1 ovarian): > 100 µM
GI50 (A498 renal): > 100 µM
TGI (A498 renal): > 100 µM
GI50 (EKVX NSCLC): > 100 µM
TGI (EKVX NSCLC): > 100 µM
